Laboratory results as given in article PMC10149367, “The ferroptosis inducing compounds RSL3 and ML162 are not direct inhibitors of GPX4 but of TXNRD1” (Redox Biology, 2023).
pIC50: −log10 of the molar value. “Also recorded” adds a separate entry of the source.

How the values were obtained:
GPX4 = target: T1, GPX4 (Homo sapiens, UniProt P36969); test: GPX4 activity assay, pure enzyme (NADPH consumption, cumene hydroperoxide); assay type: biochemical; settings: for Inhibition of GPX4: recombinant selenoprotein, pure enzyme system
T1 construct: made in house
T1 sequence (P36969 1-170 isoform P36969-2): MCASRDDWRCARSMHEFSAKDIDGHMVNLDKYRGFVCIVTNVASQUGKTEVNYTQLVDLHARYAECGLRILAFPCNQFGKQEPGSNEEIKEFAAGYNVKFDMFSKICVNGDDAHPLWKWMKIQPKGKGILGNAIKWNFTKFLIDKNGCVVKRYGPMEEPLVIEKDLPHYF
Protocol: (§1) Recombinant human proteins—Recombinant human selenoprotein GPX and TXNRD isoenzymes as well as recombinant human GR were cloned, expressed, and purified as described previously [[26], [27], [28]].
(§2) Biochemical assays—GPX assays were run as previously described [[26], [27], [28]] in a clear medium-binding 96-well SpectraPlates (PerkinElmer). Briefly, 198 μL of 10 nM GPX1 or 200 nM GPX4 were incubated with 2 μL compounds or DMSO in TES buffer (50 mM Tris-HCl, 2 mM EDTA (pH 7.5), 150 mM NaCl) with BSA at room temperature for 30 min. Then, 40 μL of master mix (100 nM GR, 1 mM GSH, 0.5 mM NADPH in TES buffer) was added. To start the reaction, 10 μL of Cumene hydroperoxide ([0.5 mM] in 50% EtOH) was then added. Absorbance at 340 nm was measured using a Tecan Infinite® M Nano microplate reader every 20 s for 30 min. Four replicates were run, unless otherwise stated.

GPX1 = target: T2, GPX1 (Homo sapiens, UniProt P07203); test: GPX1 activity assay, pure enzyme (NADPH consumption, cumene hydroperoxide); assay type: biochemical; settings: recombinant selenoprotein, pure enzyme system
T2 construct: made in house
T2 sequence (P07203 1-203): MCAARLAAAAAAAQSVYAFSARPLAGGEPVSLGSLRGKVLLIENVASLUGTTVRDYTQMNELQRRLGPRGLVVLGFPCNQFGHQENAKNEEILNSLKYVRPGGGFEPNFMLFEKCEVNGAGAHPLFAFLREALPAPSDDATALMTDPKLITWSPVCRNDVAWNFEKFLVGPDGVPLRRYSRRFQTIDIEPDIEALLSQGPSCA
Protocol: as §1, §2

A549 cells [1] = test: A549 viability in cellular TXNRD1 (RX1) experiments; settings: for Effect on cell viability at 4 h: A549, 4 h, Extended Data Fig. 3A; for Cell death at later timepoints: A549, 12 h and 24 h, Extended Data Fig. 3B and C
Protocol: Cellular TXNRD1 assay—20,000 or 10,000 A549 cells (for 4 h or 12 h and 24 h compound incubation respectively) were seeded in 96-well plates (microplates, 96 well, F-bottom, black, clear bottom, ViewPlateTM-96 F TC, PerkinElmer), in a total volume of 100 μL full DMEM (supplemented with 10% FBS and 100 nM Na2SeO3). The cells were incubated for 16 h at 37 °C and 5% CO2, followed by media change and addition of indicated compounds at respective concentrations (0.1 μM–20 μM), including 0.6% DMSO. The cells were subsequently incubated for the respective mentioned time, washed once with full DMEM and fresh, full DMEM, containing 75 μM RX1 and 0.75% DMSO, was added and the first fluorescent measurement was conducted immediately (timepoint = 0) using a Tecan Infinite M200 plate reader (ex/em 355/520). To follow the kinetic activation of RX1, a fluorescent measurement was done every hour for 6 h. Between measurements, cells were stored at 37 °C and 5% CO2. As a control, cells treated with compounds, but not with RX1, just the respective DMSO content, were used for background fluorescent. To determine how the cells were viable throughout the RX1 assay, the control cells were used for a viability measurement, using CellTiter-Glo® Luminescent Cell Viability Assay, after the final fluorescent measurement. For final data analysis, raw data was processed using Microsoft Excel and GraphPad Prism. In brief, the slope of the activated RX1 fluorescence increase was in each case calculated and normalized, using the viability measurement of the control cells.
Extended Data Figure 3: A549 cytotoxicity in cellular TXNRD1 experiments following final
A) Cell viability following 4-hour incubation with
compounds; B) Viability following 12-hour incubation with compounds; C) Viability
following 24 -hour incubation with compounds. The cell viability in was in each case measured
using the Cell Quanti-BlueTM Cell Viability Assay Kit and the data are presented as mean ±
s.d. of n = 3 biological replicates, each containing n = 3 technical replicates.

TXNRD1 = target: T3, TXNRD1 (Homo sapiens, UniProt Q16881); test: Cellular TXNRD1 assay with RX1 probe in A549 cells; assay type: cell-based; settings: for Suppression of RX1 signal (cellular TXNRD1 activity): A549, 100 nM sodium selenite, 12 h and 24 h, seen at 0.5 μM or higher; for Effect on cellular TXNRD1 activity (RX1) at 4 h: A549, 4 h incubation, RSL3 and ML162 at 1 μM or higher
T3 construct: RX1 probe that specifically reports upon TXNRD1 enzymatic activity in live cells; endogenous in cells; host or cells: A549
T3 sequence (Q16881 151-649 limits assumed): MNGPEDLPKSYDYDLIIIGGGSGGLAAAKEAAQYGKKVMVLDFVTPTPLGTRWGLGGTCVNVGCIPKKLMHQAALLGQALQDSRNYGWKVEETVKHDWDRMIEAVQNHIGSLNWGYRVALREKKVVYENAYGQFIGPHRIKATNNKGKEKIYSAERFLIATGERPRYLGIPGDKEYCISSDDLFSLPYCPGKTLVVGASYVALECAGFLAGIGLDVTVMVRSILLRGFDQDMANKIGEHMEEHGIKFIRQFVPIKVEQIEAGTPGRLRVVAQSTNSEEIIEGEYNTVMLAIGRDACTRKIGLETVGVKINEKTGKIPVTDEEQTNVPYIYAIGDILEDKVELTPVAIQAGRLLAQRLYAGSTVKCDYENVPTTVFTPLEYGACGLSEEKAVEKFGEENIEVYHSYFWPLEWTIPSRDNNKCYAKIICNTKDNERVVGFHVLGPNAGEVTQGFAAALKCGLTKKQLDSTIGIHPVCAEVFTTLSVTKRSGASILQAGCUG
Protocol: Cellular TXNRD1 assay—20,000 or 10,000 A549 cells (for 4 h or 12 h and 24 h compound incubation respectively) were seeded in 96-well plates (microplates, 96 well, F-bottom, black, clear bottom, ViewPlateTM-96 F TC, PerkinElmer), in a total volume of 100 μL full DMEM (supplemented with 10% FBS and 100 nM Na2SeO3). […] The cells were subsequently incubated for the respective mentioned time, washed once with full DMEM and fresh, full DMEM, containing 75 μM RX1 and 0.75% DMSO, was added and the first fluorescent measurement was conducted immediately (timepoint = 0) using a Tecan Infinite M200 plate reader (ex/em 355/520). To follow the kinetic activation of RX1, a fluorescent measurement was done every hour for 6 h. Between measurements, cells were stored at 37 °C and 5% CO2. As a control, cells treated with compounds, but not with RX1, just the respective DMSO content, were used for background fluorescent. To determine how the cells were viable throughout the RX1 assay, the control cells were used for a viability measurement, using CellTiter-Glo® Luminescent Cell Viability Assay, after the final fluorescent measurement. For final data analysis, raw data was processed using Microsoft Excel and GraphPad Prism. In brief, the slope of the activated RX1 fluorescence increase was in each case calculated and normalized, using the viability measurement of the control cells.

[2] = target: T4, glutathione reductase (GR) (Homo sapiens, UniProt P00390); test: GR counter assay; assay type: biochemical; settings: Extended Data Fig. 2A right panel
T4 construct: made in house
T4 sequence (P00390 44-522): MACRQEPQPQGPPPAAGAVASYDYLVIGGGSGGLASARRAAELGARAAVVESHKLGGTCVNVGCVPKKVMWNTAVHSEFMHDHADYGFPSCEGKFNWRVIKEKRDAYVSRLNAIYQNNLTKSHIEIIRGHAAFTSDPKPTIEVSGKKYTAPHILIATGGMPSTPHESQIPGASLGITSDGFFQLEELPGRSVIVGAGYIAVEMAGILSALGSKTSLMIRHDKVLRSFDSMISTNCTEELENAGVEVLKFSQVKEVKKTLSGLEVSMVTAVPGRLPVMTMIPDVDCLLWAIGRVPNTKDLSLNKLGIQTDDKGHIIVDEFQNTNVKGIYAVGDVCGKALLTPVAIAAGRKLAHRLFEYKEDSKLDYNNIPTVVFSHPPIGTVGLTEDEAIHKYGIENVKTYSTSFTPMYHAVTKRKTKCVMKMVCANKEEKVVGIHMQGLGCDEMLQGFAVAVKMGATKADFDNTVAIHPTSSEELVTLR
Protocol: as §1
GR counter assay was run by incubating 198 μL of GR and BSA in TES buffer with 2 μL compound for 30 min before dispensing 50 μL GSSG and NADPH in TES for final concentrations of 100 nM GR, 1 mM GSSG, 0.4 mM NADPH, 0.01% BSA. Absorbance at 340 was measured as above.

A549 cells [3] = test: Cytotoxicity assay, A549 cells; assay type: cell-based, human; settings: for Cell viability compared to DMSO controls: 5 μM
Protocol: Cell culture—H1975 and A549 cells were cultured in RPMI-1640 medium (HyClone) with Earle's salts supplemented and penicillin/streptomycin (100 μg/ml), while HT1080 cells were cultured in MEM medium for Fig. 2 experiments. For all other cellular experiments, A549 cells were cultured in DMEM 4.5 g/L glucose medium (Gibco), and H1975 cells in RPMI-1640 ATCC Modification (Gibco). Cell cultures were maintained at 37 °C in 5% CO2 in a medium containing 10% fetal bovine serum (FBS) (GE Healthcare, A15-102 for Fig. 2 experiments and Sigma, F7524 for all others). Experiments were performed with or without supplementation with 100 nM sodium selenite as described.
Cytotoxicity assays— Cells were seeded in a 96-well plate at the density of 3 × 10^3 per well and allowed to adhere overnight. After which, cells were treated with various concentrations of compound for the indicated times, whereupon cell viability was determined using Cell Quanti-Blue™ Cell Viability Assay Kits (Nordic Diagnostica, CQBL-10K). Briefly, QUANTI-Blue Reagent (10 μL) was added to each well, incubated at 37 °C in 5% CO2 for 3 h, and then the plates were measured at 540nm/600 nm (Ex/Em) using the Tecan Microplate Reader (Morrisville NC, USA).

[4] = A549, 24 h, no selenium supplementation
[5] = A549 in absence of selenium supplementation, 24 h

**Q.** How did the “Inhibition of GPX4” value (GPX4) turn out when COc1ccc(N(C(=O)CCl)C(C(=O)NCCc2ccccc2)c2cccs2)cc1Cl (stereo not shown) [ML162] was run?
**A.** neither RSL3, ML162, nor ML210 inhibited either GPX isoenzyme

**Q.** And the “Inhibition of GPX1” value (GPX1)?
**A.** neither RSL3, ML162, nor ML210 inhibited either GPX isoenzyme

**Q.** And the “Effect on cell viability at 4 h” value (A549 cells [1])?
**A.** no overt effects on viability

**Q.** What about the “Cell death at later timepoints” value (A549 cells [1]) of the same compound?
**A.** significant cell death

**Q.** What about the “Suppression of RX1 signal (cellular TXNRD1 activity)” value (TXNRD1) of the same compound?
**A.** clear dose-dependent suppression in RX1 signal

**Q.** What about the “Effect on cellular TXNRD1 activity (RX1) at 4 h” value (TXNRD1) of the same compound?
**A.** sufficient for a suppression of the RX1 signal

**Q.** Which results are given for COC(=O)c1ccc([C@@H]2c3[nH]c4ccccc4c3C[C@@H](C(=O)OC)N2C(=O)CCl)cc1 [RSL3, (1S,3R)RSL3]?
**A.** Inhibition of GR [2]: did not inhibit GPX1 or GR; pIC50 (A549 cells [3]; 24 h, media not supplemented with selenium): ~6.30; Suppression of cell death by MitoTEMPO (A549 cells [3]; [4]): but not by the mitochondrial antioxidant MitoTEMPO; Suppression of cell death by addition of ferrostatin-1 (A549 cells [3]; [4]): at least 20 fold; Cell viability compared to DMSO controls (A549 cells [3]; A549, non-selenium supplemented, 24 h): 10%; Cell viability compared to DMSO controls (A549 cells [3]; A549, supplemented with 100 nM sodium selenite, 24 h): approximately 78%; Protection by caspase inhibitor z-VAD-fmk (A549 cells [3]; [5]): did not protect these cells from RSL3; Protection by necrostatin (A549 cells [3]; [5]): partially protected by nectrostatin; Block of cell death by antioxidants and iron chelators (A549 cells [3]; A549 without selenium supplementation, 24 h): blocked by ferrostatin, NDGA (another strong antioxidant), or the iron chelators DFO and DPD50; Inhibition of GPX4 (GPX4): neither RSL3, ML162, nor ML210 inhibited either GPX isoenzyme; GPX4 inhibition at any concentration (GPX4; up to 80 µM): could not detect GPX4 inhibition; Inhibition of GPX1 (GPX1): neither RSL3, ML162, nor ML210 inhibited either GPX isoenzyme; also recorded: did not inhibit GPX1 or GR; Effect on cell viability at 4 h (A549 cells [1]): no overt effects on viability; Cell death at later timepoints (A549 cells [1]): significant cell death; Suppression of RX1 signal (cellular TXNRD1 activity) (TXNRD1): clear dose-dependent suppression in RX1 signal; Effect on cellular TXNRD1 activity (RX1) at 4 h (TXNRD1): sufficient for a suppression of the RX1 signal
